According to paper PMC12391994, “Synthesis of a fac-Tricarbonylrhenium(I) Complex with Pyrithione, Its Physicochemical Characterization, and Assessment of Biological Effects” (ACS Omega, 2025):
Like-named read-outs stand apart in the source and are kept apart here.

Key:
[1] = target: T1, cathepsin B (endopeptidase activity) (Homo sapiens, UniProt P07858); assay: Relative inhibition of cathepsin B endopeptidase activity; type: biochemical; conditions: 50 μM; substrate Z-Arg-Arg-AMC; pH 6.0
T1 construct: made in house; host or cells: E. coli
From the text: (§1) Relative inhibition is expressed as a percentage of the decrease in reaction velocity in the presence of an inhibitor, in comparison to the reaction velocity in the absence of an inhibitor. For that purpose, the specific fluorogenic substrates Z-Arg-Arg-7-amido-4-methylcoumarin (Z-Arg-Arg-AMC) and 2-aminobenzoyl (Abz)-Gly-Ile-Val-Arg-Ala-Lys-(Dnp)-OH were used for cathepsin B endopeptidase and exopeptidase activities, respectively, and Z-Phe-Arg-AMC was used for cathepsin L and V activities.
(§2) Human recombinant cathepsin B was expressed in E. coli, recombinant cathepsin V was expressed in Pichia pastoris, and human recombinant cathepsin L was expressed in E. coli, as reported. − For the determination of cathepsin B endopeptidase and exopeptidase activities, 100 mM phosphate buffer (pH 6.0) and 60 mM acetate buffer (pH 5.0) were used, respectively, and for the determination of cathepsin V and L activities, 100 mM acetate buffer (pH 5.5) was used. All buffers contained 0.1% PEG 8000 (Sigma-Aldrich, St. Louis, MO), 5 mM cysteine, and 1.5 mM EDTA. Prior to the assay, the enzymes were activated in the assay buffer for 5 min at 37 °C.
(§3) To determine the effect of inhibitors on enzyme activity, the following substrates were used: Z-Arg-Arg-AMC (final concentration 5 μM, Z-RR-AMC; Bachem, Bubendorf, Switzerland) for cathepsin B endopeptidase activity, Abz-Gly-Ile-Val-Arg-Ala-Lys-(Dnp)-OH (final concentration 1 μM, Abz-GIVRAK-(Dnp)-OH; Bachem) for cathepsin B exopeptidase activity, and Z-Phe-Arg-AMC (final concentration 2 μM, Z-FR-AMC; Bachem) for cathepsin V and L activity. The substrate ([…]) at a final concentration and inhibitor ([…]) at a concentration of 50 μM were added to the wells of a black microplate. The reaction was then initiated by adding 90 μL of activated enzyme (final concentrations: 5 nM cathepsin B for its endopeptidase activity, 0.5 nM cathepsin B for its exopeptidase activity, 2.5 ng/mL for cathepsin V, and 0.02 nM for cathepsin L) in the assay buffer. The formation of fluorescent degradation products during the reaction was continuously monitored at 460 ± 10 nm with excitation at 380 ± 20 nm for Z-Arg-Arg-AMC and Z-Phe-Arg-AMC and at 420 ± 10 nm with excitation at 320 ± 20 nm for Abz-Gly-Ile-Val-Arg-Ala-Lys(Dnp)-OH at 37 °C on a Tecan Infinite M1000 (Mannedorf, Switzerland) spectrofluorometer. All assay mixtures contained 5% (v/v) DMSO. To prevent false-positive inhibition due to the formation of compound aggregates, 0.01% Triton X-100 was used. All measurements were performed in triplicate and repeated twice. The relative inhibition was calculated using the following equation: relative inhibition (%) = 100(1 – v i/v o), where v i and v o designate the reaction velocities in the presence and absence of inhibitor, respectively.

[2] = 10 mM HEPES pH 7.4, 25.0 °C
Procedure: Distribution coefficients (D 7.4) were determined using n-octanol/buffered aqueous solution (10 mM HEPES, pH = 7.4) partitioning (Table ).
The traditional shake-flask method was used to obtain the distribution coefficient of the complex in n-octanol/buffered aqueous solution (10 mM HEPES, pH = 7.4) using UV–vis spectrophotometry. The measurements and data evaluation were performed as in our previous work.

[3] = Stability/transformation in aqueous solution (1H NMR, UV-vis, CZE); type: physicochemical
Procedure: A Bruker Avance III HD Ascend 500 Plus instrument (Billerica, MA) was used for solution NMR studies. Spectra were recorded with a WATERGATE water suppression pulse scheme in the presence of 10% (v/v) D2O in most cases. DSS internal standard was added to samples to obtain reference peaks.

cathepsin L = target: T2, cathepsin L (Homo sapiens, UniProt P07711); assay: Relative inhibition of cathepsin L; type: biochemical; conditions: 50 μM; substrate Z-Phe-Arg-AMC; pH 5.5
T2 construct: made in house; host or cells: E. coli
From the text: as §1, §2, §3

Colo205 cells = assay: MTT cytotoxicity assay, Colo205; type: cell-based, human; conditions: 72 h incubation, MTT; read-out: IC50 Colo205
Procedure: Its cytotoxicity was determined in the human HeLa cervical cancer cell line, the drug-sensitive Colo205 and its resistant counterpart, the ABCB1 expressing Colo320 colon adenocarcinoma cancer cell lines, using the colorimetric 3-(4,5-dimethylthiazol-2-yl)-2,5-diphenyltetrazolium bromide (MTT) test. To investigate the selectivity toward cancer cells, the noncancerous fibroblast CCD-19Lu cell line was included.
Drug-sensitive Colo205 (ATCC-CCL-222) and ABCB1 (MDR1)-LRP expressing and doxorubicin-resistant Colo320/MDR-LRP (ATCC-CCL-220.1) human colonic adenocarcinoma cell lines were purchased from LGC Promochem (Teddington, U.K.). The cells were cultured in RPMI 1640 medium supplemented with 10% heat-inactivated fetal bovine serum, 2 mM L-glutamine, 1 mM Na-pyruvate, and 10 mM HEPES.
The tested compound was dissolved in DMSO to prepare a 5 mM stock solution, which was diluted in complete culture medium, to study the effect of compounds on cell growth of human colonic adenocarcinoma cell lines. Doxorubicin was used as the positive control. The cells were treated with a trypsin-versene (EDTA) solution. Cells were adjusted to a density of 1 × 10^4 cells in 100 μL of the appropriate culture medium and were added to each well, with the exception of the medium control wells. Except for the semiadherent Colo205 and Colo320 cell lines, the other adherent cell lines were seeded 24 h prior to the assay. Then, stock solutions were diluted in the appropriate culture medium, and 2-fold serial dilutions of compounds were prepared in 100 μL of the medium, horizontally. The final volume of the wells containing compounds and cells was 200 μL. The plates were incubated at 37 °C for 72 h; at the end of the incubation period, 20 μL of MTT solution (from a stock solution of 5 mg/mL) was added to each well. […] Cell growth was determined by measuring the optical density (OD) at 540/630 nm with a Multiscan EX ELISA reader (Thermo Labsystems, Cheshire, WA). […]

MCF-10A neoT cells = assay: MTS cell viability assay; conditions: 24 h, concentrations used to monitor ECM degradation
Procedure: The cells were seeded at 6 × 10^4 cells/well into a 96-well microplate and incubated overnight for attachment. The cells were then treated with the inhibitor (at 1, 2.5, or 5 μM) or DMSO (0.1%) in 100 μL for 24 h. After incubation, 10 μL of the reagent MTS was added to the wells, and the absorbance of formazan was measured at 492 nm on a Tecan Infinite M1000 instrument (Mannedorf, Switzerland). Cell viability (%) was expressed as the ratio between absorbance in the presence of the compounds and that in the presence of DMSO. All assays were performed in quadruplicate and repeated twice.

T2 sequence (P07711 114-333): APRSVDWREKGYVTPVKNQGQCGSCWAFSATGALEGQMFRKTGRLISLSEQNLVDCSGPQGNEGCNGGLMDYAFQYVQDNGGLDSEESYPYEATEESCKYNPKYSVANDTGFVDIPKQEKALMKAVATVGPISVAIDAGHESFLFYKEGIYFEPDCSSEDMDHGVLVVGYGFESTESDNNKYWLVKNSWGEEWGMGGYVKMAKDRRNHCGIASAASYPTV

Compound: N#Cc1ccccc1.[C-]#[O+].[C-]#[O+].[C-]#[O+].[O-]n1ccccc1=S.[Re+] [complex 4, fac-[Re(CO)3(pth)(benzonitrile)]]
- relative inhibition cathepsin B endopeptidase [1]: 63.6 ± 0.8%
- log D7.4 ([2]; c(Cl–) 0 mM): +1.61 ± 0.18
- log D7.4 ([2]; c(Cl–) 4 mM): +1.67 ± 0.14
- log D7.4 ([2]; c(Cl–) 24 mM): +1.71 ± 0.13
- log D7.4 ([2]; c(Cl–) 100 mM): +1.71 ± 0.14
- time for complete release of the benzonitrile ligand ([3]; water pH 6.8 and pH 7.4 (phosphate or HEPES buffer), kept in the dark, 1H NMR): ≤ 1 h
- dissociation of the pyrithione ligand ([3]; water pH 6.8 and pH 7.4 buffers, dark, 48 h): did not occur within 48 h
- relative inhibition cathepsin L (cathepsin L): 5.0 ± 4.8%
- IC50 (Colo205 cells): 9.22 ± 0.53 µM
- effect on viability of MCF-10A neoT cells (MCF-10A neoT cells): did not impair the viability
